Reference: ChEMBL document CHEMBL1201862, “PubChem BioAssay data set” (2004)
Calls of active or inactive are those of the source.

Assays:
Cytochrome P450 1A2 = target: T1, Cytochrome P450 1A2 (Homo sapiens, UniProt P05177);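 also: PubChem cytochrome P450 panel assay, CYP1A2 panel member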
T1 sequence (P05177 whole entry): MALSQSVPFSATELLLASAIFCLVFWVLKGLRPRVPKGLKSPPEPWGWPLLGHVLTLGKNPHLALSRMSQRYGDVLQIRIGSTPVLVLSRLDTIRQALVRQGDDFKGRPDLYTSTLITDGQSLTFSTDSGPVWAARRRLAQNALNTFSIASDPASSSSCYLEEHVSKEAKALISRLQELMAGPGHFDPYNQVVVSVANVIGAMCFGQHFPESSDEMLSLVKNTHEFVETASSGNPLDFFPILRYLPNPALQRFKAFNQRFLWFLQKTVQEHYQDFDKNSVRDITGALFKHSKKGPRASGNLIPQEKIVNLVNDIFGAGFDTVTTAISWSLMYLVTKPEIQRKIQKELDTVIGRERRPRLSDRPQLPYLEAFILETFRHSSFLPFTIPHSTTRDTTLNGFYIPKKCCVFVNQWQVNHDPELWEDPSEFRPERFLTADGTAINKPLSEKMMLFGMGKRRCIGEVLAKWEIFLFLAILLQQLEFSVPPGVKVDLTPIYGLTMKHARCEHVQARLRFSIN

Cytochrome P450 2D6 = Cytochrome P450 2D6 (Homo sapiens, UniProt P10635);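 also: CYP2D6 member of a cytochrome P450 panel assay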
Cytochrome P450 2C19 = Cytochrome P450 2C19 (Homo sapiens, UniProt P33261); experiment: Cytochrome panel assay with activity outcomes. Panel member name: p450-cyp2c19 Compounds with AC50 equal or less than 10 uM are considered active; type: functional
[1] = target: Glucose-6-phosphate 1-dehydrogenase (Homo sapiens, UniProt P11413); experiment: human G6PD enzyme inhibitors, dose response, selectivity assay for P. falciparum G6PD inhibitor project, biochemical, fluorescence (AID 504792); type: functional
[2] = target: T2, Apoptotic protease-activating factor 1 (Homo sapiens, UniProt O14727); experiment: SAR analysis of small molecule Activators of Apaf-1 in a Fluorescent assay.; type: functional; settings: read-out: EC50_Mean
T2 sequence (O14727 whole entry): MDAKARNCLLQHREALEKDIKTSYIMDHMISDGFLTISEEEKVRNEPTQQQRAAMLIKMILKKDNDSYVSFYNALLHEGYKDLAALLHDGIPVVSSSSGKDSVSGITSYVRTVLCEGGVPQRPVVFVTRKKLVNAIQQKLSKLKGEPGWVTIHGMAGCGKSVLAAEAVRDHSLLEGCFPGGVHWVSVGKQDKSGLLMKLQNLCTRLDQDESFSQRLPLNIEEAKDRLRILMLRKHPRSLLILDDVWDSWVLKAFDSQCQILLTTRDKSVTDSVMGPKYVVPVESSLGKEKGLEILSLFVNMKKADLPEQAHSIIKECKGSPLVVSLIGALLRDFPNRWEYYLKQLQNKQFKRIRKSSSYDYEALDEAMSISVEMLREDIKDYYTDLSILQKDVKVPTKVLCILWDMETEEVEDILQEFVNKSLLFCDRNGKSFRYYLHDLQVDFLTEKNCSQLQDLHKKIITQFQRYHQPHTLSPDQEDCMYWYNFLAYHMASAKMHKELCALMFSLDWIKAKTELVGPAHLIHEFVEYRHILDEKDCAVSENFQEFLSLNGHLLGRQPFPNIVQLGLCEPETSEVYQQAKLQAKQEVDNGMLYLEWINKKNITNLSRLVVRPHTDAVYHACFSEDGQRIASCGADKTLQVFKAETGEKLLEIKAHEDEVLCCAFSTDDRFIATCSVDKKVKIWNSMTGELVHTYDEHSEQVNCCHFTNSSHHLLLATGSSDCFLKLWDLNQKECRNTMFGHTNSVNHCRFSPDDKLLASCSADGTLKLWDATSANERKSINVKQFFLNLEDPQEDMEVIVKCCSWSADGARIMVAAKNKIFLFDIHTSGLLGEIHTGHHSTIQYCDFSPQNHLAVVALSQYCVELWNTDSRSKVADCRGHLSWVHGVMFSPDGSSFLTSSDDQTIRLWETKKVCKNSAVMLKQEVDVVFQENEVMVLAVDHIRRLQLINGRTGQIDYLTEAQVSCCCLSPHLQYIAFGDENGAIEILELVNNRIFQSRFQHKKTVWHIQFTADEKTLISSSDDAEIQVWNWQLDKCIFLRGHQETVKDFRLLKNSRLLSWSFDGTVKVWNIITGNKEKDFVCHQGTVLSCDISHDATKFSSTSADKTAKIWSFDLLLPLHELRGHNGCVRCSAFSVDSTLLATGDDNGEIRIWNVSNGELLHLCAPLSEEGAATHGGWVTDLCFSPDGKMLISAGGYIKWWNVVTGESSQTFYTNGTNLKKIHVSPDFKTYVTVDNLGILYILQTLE

Caspase-6 = target: T3, Caspase-6 (Homo sapiens, UniProt P55212); experiment: human caspase-6 inhibitors, dose response, biochemical, VEID-R110 fluorescence, cherry-pick (AID 720632)
T3 sequence (P55212 whole entry): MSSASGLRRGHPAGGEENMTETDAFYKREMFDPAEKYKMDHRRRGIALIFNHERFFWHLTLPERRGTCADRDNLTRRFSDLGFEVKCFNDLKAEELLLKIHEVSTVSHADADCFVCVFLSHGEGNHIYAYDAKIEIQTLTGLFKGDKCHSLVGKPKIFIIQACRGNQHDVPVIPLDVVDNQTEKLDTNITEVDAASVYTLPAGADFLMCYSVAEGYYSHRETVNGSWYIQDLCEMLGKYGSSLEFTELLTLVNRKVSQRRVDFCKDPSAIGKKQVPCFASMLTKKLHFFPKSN

[3] = target: T4, Polyadenylate-binding protein 1 (Homo sapiens, UniProt P11940); experiment: PABP1 MLLE–PAM2 interaction inhibitors, dose response, miRNA deadenylation inhibitor project, biochemical, fluorescence polarization, Cy5-PAM2 peptide, secondary (AID 602260); type: functional; settings: read-out: IC50_Mean
[4] = target: T4, Polyadenylate-binding protein 1; experiment: PABP1 MLLE–PAM2 binding inhibitor potency, dose response, biochemical, fluorescence polarization, FITC-PAM2 peptide (AID 602259); type: functional; settings: read-out: IC50_Mean
[5] = target: T2, Apoptotic protease-activating factor 1; experiment: activation of Apaf-1 mediated apoptosis – fluorescent, uHTS hits, dose response (AID 588554); type: functional
Protein RecA = target: T5, Protein RecA (Mycobacterium tuberculosis, UniProt P9WHJ3); experiment: Fluorescence Cell-Free Homogeneous Dose Retest to Identify Inhibitors of RecA-Intein Splicing Activity. [Related pubchem assays (depositor defined):AID2097, AID2223, AID489010, AID492950]; type: functional
T5 sequence (P9WHJ3 whole entry): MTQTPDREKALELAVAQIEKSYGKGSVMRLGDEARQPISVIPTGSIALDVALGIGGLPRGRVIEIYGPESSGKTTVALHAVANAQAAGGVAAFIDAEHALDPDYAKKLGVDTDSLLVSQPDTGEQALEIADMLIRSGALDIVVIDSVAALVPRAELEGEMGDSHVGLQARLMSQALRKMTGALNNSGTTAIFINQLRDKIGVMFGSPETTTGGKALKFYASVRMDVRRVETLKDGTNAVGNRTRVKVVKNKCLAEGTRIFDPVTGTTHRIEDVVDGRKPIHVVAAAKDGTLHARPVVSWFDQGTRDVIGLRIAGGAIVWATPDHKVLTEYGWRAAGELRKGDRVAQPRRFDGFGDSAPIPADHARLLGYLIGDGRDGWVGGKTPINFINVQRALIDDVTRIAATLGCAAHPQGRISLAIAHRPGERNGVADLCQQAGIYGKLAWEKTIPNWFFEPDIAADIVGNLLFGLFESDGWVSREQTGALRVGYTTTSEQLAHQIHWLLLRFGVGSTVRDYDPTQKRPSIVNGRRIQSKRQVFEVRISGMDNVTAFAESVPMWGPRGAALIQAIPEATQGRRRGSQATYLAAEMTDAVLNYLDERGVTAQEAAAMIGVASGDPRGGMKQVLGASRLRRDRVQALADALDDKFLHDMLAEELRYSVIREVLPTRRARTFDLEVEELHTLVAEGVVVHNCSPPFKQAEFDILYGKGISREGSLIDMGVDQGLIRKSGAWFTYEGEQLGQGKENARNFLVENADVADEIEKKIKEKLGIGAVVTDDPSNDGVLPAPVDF

[6] = target: T6, Replicative DNA helicase DnaB (Mycobacterium tuberculosis, UniProt P9WMR3); experiment: DnaB intein splicing inhibitors, dose response, biochemical, cell-free fluorescence (AID 449749); type: functional
T6 sequence (P9WMR3 whole entry): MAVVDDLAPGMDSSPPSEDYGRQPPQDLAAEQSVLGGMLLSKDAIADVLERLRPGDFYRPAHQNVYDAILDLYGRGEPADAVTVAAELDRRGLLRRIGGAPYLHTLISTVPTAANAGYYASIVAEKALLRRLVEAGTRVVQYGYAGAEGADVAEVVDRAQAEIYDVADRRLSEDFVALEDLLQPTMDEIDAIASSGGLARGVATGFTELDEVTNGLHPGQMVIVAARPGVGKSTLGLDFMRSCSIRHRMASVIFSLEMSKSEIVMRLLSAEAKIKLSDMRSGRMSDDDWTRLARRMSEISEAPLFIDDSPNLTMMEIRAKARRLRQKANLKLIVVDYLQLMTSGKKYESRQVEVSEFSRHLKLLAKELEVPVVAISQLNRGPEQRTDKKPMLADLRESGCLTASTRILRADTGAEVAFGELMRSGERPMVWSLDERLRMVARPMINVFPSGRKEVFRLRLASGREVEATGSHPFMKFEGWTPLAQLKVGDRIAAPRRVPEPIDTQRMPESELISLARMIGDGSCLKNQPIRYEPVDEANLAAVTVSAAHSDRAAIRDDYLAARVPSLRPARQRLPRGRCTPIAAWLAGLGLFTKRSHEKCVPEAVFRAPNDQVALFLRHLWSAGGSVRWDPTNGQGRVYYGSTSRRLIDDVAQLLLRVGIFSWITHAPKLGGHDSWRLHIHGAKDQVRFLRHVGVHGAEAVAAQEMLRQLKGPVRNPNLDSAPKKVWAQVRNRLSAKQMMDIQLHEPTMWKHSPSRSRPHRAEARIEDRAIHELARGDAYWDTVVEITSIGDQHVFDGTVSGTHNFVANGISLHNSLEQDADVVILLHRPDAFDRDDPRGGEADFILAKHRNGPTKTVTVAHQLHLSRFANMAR

Caspase-7 = Caspase-7 (Homo sapiens, UniProt P55210); experiment: human caspase-7 inhibitors, dose response, selectivity assay for caspase-6 inhibitor project, biochemical, DEVD-R110 fluorescence, cherry-pick (AID 743295)
[7] = target: Lysine-specific demethylase 4C (Homo sapiens, UniProt Q9H3R0); experiment: GASC-1 (JMJD2C) histone demethylase inhibitors, dose response, biochemical, DELFIA europium, cherry-picked samples (AID 488835); type: functional
[8] = growth induction of Burl-1 ts yeast mutant, dose response, counter-screen for SUMOylation pathway inhibitor project, whole organism, S. cerevisiae, luminescence (AID 463199); type: functional
Fatty acid synthase [9] = target: T7, Fatty acid synthase (Homo sapiens, UniProt P49327); experiment: FAS thioesterase domain inhibitors, dose response, biochemical, endpoint fluorescence intensity, uHTS hits (AID 624327); type: functional;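 also: fluorescence from hydrolysis of an O-methyl fluorescein acyl ester substrate by the enzyme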
[10] = target: T8, Dual specificity protein phosphatase 3 (Homo sapiens, UniProt P51452); experiment: SAR VHR1 Fluorescent Assay for In Vitro dose response studies. [Related pubchem assays (depositor defined):AID1654, AID1661, AID1878, AID1992, AID2004, AID2070, AID2085]; type: functional
Vero = Vero cell cytotoxicity, cytotoxicity control for flavivirus capping enzyme inhibitors (AID 588742); type: functional; settings: Chlorocebus sabaeus
[11] = target: T8, Dual specificity protein phosphatase 3; experiment: SAR VHR1 Fluorescent Assay for In Vitro dose response studies Set 2. [Related pubchem assays (depositor defined):AID1654, AID1661, AID1878]; type: functional
[12] = target: T8, Dual specificity protein phosphatase 3; experiment: SAR VHR1 absorbance Assay for In Vitro dose response studies. [Related pubchem assays (depositor defined):AID1654, AID1661, AID1878, AID1992, AID2004]
[13] = target: T9, Probable nicotinate-nucleotide adenylyltransferase (Staphylococcus aureus (strain N315), UniProt P65502); type: functional, Staphylococcus aureus subsp. aureus N315;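 as to IC50 Mean: confirmatory dose-response retesting of NadD inhibitor hits first found in an ultra-high-throughput screen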
[14] = target: T10, Dual specificity protein phosphatase 6 (Rattus norvegicus, UniProt Q64346); type: functional;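 also: confirmatory in vitro dose-response testing of MKP-3 inhibition; recombinant His-tagged MKP-3 made in E. coli BL21 with OMFP substrate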
T10 sequence (Q64346 whole entry): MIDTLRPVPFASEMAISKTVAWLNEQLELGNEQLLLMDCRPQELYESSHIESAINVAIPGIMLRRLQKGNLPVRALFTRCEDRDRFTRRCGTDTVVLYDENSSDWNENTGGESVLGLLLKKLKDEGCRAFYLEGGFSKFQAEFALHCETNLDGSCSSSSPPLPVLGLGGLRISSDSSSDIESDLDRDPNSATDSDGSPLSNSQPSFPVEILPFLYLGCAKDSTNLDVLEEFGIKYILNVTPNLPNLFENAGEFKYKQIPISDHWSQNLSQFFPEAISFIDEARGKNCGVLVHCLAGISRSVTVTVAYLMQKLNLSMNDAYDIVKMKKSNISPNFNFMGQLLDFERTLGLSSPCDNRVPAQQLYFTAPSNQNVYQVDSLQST

Fatty acid synthase [15] = target: T7, Fatty acid synthase; experiment: FAS thioesterase domain inhibitors, dose response, biochemical, kinetic fluorescence intensity (AID 624326); type: functional;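 also: rate of fluorescence rise from hydrolysis of a fluorogenic O-methyl fluorescein ester substrate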
[16] = target: T9, Probable nicotinate-nucleotide adenylyltransferase; type: functional, Staphylococcus aureus subsp. aureus N315; settings: read-out: IC50_Mean
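For EC50 Mean in this document: caspase-3 cleavage of fluorogenic Rh110 DEVD substrate downstream of apoptosome activation.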

T8 sequence (P51452 whole entry): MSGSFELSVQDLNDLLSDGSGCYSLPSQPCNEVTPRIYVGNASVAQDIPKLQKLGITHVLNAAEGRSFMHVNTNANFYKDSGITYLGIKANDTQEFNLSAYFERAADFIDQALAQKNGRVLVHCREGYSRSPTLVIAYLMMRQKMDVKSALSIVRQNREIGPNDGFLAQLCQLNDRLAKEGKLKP
T4 sequence (P11940 whole entry): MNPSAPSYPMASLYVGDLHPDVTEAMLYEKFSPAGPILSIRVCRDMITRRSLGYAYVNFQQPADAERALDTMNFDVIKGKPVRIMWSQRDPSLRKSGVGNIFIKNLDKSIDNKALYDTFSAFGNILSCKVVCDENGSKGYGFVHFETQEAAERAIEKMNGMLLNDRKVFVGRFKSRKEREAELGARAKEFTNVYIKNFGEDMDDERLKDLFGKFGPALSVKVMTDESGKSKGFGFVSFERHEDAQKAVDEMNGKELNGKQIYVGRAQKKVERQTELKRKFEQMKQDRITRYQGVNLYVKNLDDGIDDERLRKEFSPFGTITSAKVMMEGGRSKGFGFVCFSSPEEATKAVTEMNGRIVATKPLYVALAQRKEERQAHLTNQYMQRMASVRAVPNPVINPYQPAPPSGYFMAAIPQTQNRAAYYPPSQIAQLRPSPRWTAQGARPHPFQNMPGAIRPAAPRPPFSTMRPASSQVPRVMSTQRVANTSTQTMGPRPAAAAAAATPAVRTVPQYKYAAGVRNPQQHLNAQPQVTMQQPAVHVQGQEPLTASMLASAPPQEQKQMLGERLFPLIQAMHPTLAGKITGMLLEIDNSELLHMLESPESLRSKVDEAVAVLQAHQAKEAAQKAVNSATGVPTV
T9 sequence (P65502 whole entry): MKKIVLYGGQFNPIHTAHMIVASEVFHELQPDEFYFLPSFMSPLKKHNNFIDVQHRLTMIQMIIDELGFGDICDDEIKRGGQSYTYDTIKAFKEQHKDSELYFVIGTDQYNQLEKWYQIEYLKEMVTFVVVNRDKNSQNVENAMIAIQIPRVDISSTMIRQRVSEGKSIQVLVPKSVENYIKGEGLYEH
T7 sequence (P49327 whole entry, the tested form may be a part): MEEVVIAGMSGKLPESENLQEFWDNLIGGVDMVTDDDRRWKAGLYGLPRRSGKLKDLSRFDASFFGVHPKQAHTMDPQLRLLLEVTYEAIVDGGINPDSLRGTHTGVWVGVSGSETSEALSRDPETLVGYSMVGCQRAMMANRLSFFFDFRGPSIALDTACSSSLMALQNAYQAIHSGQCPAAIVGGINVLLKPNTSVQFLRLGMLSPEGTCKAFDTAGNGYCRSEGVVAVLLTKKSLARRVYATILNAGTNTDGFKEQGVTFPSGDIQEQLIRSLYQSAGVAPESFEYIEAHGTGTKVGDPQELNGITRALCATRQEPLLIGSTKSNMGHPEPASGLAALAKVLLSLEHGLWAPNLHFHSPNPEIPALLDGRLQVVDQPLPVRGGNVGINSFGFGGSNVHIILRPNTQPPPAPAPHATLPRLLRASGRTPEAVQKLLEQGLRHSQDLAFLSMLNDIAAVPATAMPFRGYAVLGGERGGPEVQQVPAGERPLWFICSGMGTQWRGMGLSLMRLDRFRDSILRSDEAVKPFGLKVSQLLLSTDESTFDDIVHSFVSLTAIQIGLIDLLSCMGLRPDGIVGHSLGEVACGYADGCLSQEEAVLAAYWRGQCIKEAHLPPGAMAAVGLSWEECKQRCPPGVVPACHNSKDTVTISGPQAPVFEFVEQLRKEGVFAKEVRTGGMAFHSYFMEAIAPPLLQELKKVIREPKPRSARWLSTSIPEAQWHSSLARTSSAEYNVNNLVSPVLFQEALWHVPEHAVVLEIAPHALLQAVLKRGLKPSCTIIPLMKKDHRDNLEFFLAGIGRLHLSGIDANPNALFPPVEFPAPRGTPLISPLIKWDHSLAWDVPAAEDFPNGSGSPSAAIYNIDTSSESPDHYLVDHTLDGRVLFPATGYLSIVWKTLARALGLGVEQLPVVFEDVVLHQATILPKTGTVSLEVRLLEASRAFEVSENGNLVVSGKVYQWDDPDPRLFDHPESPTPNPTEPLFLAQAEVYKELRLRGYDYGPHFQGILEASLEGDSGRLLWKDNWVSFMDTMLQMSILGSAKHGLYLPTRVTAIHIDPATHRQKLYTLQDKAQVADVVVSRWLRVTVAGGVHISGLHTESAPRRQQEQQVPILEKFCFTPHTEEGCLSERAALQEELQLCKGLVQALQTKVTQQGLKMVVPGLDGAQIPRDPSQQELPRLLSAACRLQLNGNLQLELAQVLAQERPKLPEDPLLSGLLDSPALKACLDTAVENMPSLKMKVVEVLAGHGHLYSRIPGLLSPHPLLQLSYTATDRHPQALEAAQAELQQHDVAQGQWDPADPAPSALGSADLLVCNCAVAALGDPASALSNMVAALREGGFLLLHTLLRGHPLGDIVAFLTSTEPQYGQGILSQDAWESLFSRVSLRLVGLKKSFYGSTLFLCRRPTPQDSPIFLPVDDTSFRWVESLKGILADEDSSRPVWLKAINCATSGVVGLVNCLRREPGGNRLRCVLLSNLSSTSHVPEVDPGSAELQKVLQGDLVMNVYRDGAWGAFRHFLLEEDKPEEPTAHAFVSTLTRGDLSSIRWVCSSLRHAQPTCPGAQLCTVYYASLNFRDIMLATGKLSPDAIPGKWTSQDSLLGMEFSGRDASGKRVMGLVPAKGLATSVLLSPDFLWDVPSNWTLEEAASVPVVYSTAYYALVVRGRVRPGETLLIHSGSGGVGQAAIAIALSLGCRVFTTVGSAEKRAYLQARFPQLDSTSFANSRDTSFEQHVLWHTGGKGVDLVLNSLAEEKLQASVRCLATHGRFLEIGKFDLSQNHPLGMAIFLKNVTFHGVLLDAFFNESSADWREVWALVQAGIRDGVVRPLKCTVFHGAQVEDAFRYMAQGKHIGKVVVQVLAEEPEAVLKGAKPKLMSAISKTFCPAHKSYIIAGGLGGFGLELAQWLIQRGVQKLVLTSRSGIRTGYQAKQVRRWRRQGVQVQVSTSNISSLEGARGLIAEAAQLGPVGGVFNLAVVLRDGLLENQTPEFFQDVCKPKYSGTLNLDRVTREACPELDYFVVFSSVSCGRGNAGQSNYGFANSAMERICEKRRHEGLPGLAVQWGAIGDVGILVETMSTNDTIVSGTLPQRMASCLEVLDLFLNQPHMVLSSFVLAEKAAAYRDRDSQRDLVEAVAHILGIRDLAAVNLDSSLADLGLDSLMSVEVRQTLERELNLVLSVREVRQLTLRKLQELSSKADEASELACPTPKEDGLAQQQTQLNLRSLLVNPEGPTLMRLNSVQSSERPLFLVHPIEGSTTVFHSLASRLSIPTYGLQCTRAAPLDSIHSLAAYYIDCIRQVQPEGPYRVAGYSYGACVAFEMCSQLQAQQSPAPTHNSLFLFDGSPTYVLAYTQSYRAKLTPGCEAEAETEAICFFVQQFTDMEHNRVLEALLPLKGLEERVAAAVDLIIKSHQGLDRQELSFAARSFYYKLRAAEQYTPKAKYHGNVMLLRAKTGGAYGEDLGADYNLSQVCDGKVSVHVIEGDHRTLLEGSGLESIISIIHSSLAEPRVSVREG
Sequence of Glucose-6-phosphate 1-dehydrogenase (P11413 whole entry): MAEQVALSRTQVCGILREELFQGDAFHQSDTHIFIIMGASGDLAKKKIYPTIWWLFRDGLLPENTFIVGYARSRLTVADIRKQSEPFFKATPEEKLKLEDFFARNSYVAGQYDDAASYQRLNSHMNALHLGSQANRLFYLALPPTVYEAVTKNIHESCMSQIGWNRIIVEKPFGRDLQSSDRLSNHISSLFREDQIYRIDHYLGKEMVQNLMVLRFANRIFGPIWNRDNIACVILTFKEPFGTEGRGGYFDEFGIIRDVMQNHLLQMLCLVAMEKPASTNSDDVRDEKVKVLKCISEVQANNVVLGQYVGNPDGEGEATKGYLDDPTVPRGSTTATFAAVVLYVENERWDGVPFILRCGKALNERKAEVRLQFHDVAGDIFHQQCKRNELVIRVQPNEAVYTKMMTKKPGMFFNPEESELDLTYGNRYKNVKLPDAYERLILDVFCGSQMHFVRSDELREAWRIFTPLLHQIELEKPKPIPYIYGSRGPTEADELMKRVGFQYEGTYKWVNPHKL
Sequence of Cytochrome P450 2C19 (P33261 whole entry): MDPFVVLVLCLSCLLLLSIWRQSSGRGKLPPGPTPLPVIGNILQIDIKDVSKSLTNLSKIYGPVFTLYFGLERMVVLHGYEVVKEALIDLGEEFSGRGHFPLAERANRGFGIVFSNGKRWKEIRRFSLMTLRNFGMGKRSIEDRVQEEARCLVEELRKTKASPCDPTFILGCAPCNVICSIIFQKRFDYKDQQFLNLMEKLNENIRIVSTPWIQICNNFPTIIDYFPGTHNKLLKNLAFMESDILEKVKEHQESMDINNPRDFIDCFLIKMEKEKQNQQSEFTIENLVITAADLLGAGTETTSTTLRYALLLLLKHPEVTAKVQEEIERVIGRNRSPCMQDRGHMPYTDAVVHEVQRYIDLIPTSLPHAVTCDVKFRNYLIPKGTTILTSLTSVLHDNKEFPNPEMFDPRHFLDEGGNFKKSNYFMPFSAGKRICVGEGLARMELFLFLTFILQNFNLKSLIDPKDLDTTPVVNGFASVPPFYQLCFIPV
Sequence of Cytochrome P450 2D6 (P10635 whole entry): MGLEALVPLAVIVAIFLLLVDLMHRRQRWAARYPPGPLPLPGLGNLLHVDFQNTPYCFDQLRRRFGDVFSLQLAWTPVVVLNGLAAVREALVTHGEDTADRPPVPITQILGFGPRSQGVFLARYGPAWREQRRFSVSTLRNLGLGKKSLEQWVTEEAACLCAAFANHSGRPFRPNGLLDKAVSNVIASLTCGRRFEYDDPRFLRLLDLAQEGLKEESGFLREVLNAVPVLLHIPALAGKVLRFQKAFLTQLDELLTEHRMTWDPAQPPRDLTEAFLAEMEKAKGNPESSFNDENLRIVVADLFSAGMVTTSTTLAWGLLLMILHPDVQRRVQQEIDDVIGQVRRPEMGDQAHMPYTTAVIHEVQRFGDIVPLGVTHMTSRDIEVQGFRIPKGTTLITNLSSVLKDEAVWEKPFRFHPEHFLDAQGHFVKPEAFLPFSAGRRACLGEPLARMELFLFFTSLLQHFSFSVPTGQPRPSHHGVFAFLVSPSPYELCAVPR

CN(C)CCN(c1ccccn1)c1ccccn1
inconclusive: AC50 (Cytochrome P450 1A2) | AC50 (Cytochrome P450 2D6) 3.98 µM | AC50 (Cytochrome P450 2C19)

CC(CNc1ccccc1O)C(=O)O (stereo not drawn)
inactive: IC50 [1] > 80 µM | EC50 [2] > 100 µM | IC50 [3] > 66 µM | IC50 [4] > 66 µM | AC50 (Caspase-7) > 70 µM
active: AC50 (Caspase-6) 3.52 µM | EC50 [5] 14 µM | EC50 (Protein RecA) 7.79 µM | AC50 [6] 28.7 µM

CCCn1c(SCC(=O)NNC(=O)c2ccc(C)cc2)nnc1C(C)C
active: AC50 [7] 9.91 µM

CCOC(=O)c1c(CN2CCCCC2)n(C)c2cc(Br)c(O)c(CN(C)C)c12
active: AC50 [8] 52.5 µM

O=C(O)CSc1cc(C(=O)c2ccccc2O)cn2c(=O)c3c(-c4ccccc4)csc3nc12
active: IC50 (Fatty acid synthase [9]) 4.85 µM | IC50 [10] 14.6 µM | CC50 (Vero) 38.8 µM | IC50 [11] 12.3 µM | IC50 [12] 1.93 µM | IC50 [13] 7.1 µM | IC50 [14] 13.2 µM | IC50 (Fatty acid synthase [15]) 4.3 µM | IC50 [16] 28.4 µM
